# In patent US20190231785A1, “PHOSPHODIESTERASE INHIBITOR TREATMENT” (Cyrano Therapeutics, Inc., priority 2012, published 2019):
# Marks after values point to notes of the source that are not given here.
# System: patients with hyposmia
# Experiment: Olfactometry (DT, RT, ME, H; forced-choice, three-stimuli, stepwise-staircase, four odors), open trial of oral theophylline
# Assay type: in vivo, human
# Source text: Patients initially reported their sensory dysfunction as either loss of taste (e.g., flavor) and/or smell function. This subjective response was documented by objective psychophysical measurements of olfactory function administered to each patient by use of a forced-choice, three-stimuli, stepwise-staircase technique in a fixed, controlled design (1, 53). Efficacy of this technique and results of testing were previously documented in a double-blind clinical trial (53). Four odors were used; they were pyridine (dead-fish odor), nitrobenzene (bitter-almond odor), thiophene (petroleum-like odor) and amyl acetate (banana-oil odor). Detection thresholds (DT), recognition thresholds (RT) and magnitude estimation (ME) values for each odor were determined as previously described (1, 53). Thresholds were converted into bottle units (BU) as previously described (53) and results reported as M±SEM of correct responses for each odor in each treatment group; ME was reported in % and results calculated to obtain M±SEM for each treatment group for all correct responses using data for the four highest odor concentrations presented (from 10^−2M—an absolute odor concentration).
# In addition, each patient graded the hedonic (H) value of each odor presented for these same odor concentrations (from 10^−2M—an absolute odor concentration using a −100-0-+100 scale). […] Results were obtained by calculating the arithmetical sum of each correct recognition response for each odor with respect to its pleasantness, unpleasantness or neutrality. Arithmetic M±SEM were obtained for each treatment group for each odor presented.
# After determination of hyposmia, patients were treated in an open label, fixed design, controlled open trial. Patients were given an oral extended release theophylline in divided daily doses taken in the middle of breakfast and lunch. All patients were initially given 200 mg of theophylline; changes in this dose were made based upon subjective responses to therapy. If at a subsequent return visit, patients reported ≥5% subjective improvement in overall smell function, they continued on this same dose of theophylline and were reevaluated after four to six months of continued treatment. Results from any subsequent return from these improved patients were not included in any subsequent data report. All subsequent comparisons between treated and untreated patients were made only between those patients continuing in the study compared to their own measurements obtained in the untreated state. If patients reported <5% subjective improvement, their theophylline dose was increased by 200 mg daily and they were scheduled for retesting at the study site after two to four months at this new dosage. For patients that reported <5% improvement, this sequence continued until patients reached 800 mg of theophylline, at which time the study was considered completed.
# Patients returned for reevaluation after two to four months of treatment. Measurements of blood serum theophylline were measured by a fluorescence polarization assay (Abbott, Chicago, Ill.). At this time, subjective changes in smell function were measured independently (compared to patient's memory of previous normal smell function monitored by use of the patients' daily measurements) using the scale from −100-0-+100 previously described (vs). After independently recording their subjective responses, smell function was measured for all four odors with DT, RT, ME and H determined without recourse to prior measurements.
# Since data for all measurements from each patient group (local or distant) on each dose level were combined mean and SEM for each measurement (DT, RT, ME, H) of smell function for each treatment group were calculated on this basis. Differences in measurements between before treatment and each treatment level were calculated and significance of differences estimated using Student t tests (values p<0.05 considered significant). […]
# [1] = Type II hyposmia, oral 800 mg, after treatment (16 patients)
# [2] = Type III hyposmia, oral 200 mg, after treatment (4 patients)
# [3] = Type III hyposmia, oral 400 mg, after treatment (2 patients)
# [4] = Type III hyposmia, oral 600 mg, after treatment (4 patients)
# [5] = oral 800 mg, vs before treatment
structure (smiles),measurement,setting,value
Cn1c(=O)c2[nH]cnc2n(C)c1=O [theophylline],"recognition threshold (RT), thiophene","Type II hyposmia, oral 600 mg, after treatment (105 patients)",8.1 ± 0.3^a BU
same,"detection threshold (DT), amyl acetate",[1],4.6 ± 0.7^a BU
same,"detection threshold (DT), nitrobenzene",[1],4.6 ± 0.9^a BU
same,"detection threshold (DT), pyridine",[1],4.7 ± 0.7^a BU
same,"detection threshold (DT), thiophene",[1],4.9 ± 0.7^a BU
same,"hedonic value (H), amyl acetate",[1],13 ± 9%
same,"hedonic value (H), nitrobenzene",[1],22 ± 11%
same,"hedonic value (H), pyridine",[1],−31 ± 9%
same,"hedonic value (H), thiophene",[1],−24 ± 8%
same,"magnitude estimation (ME), amyl acetate",[1],38 ± 6^e %
same,"magnitude estimation (ME), nitrobenzene",[1],42 ± 8^b %
same,"magnitude estimation (ME), pyridine",[1],43 ± 5^e %
same,"magnitude estimation (ME), thiophene",[1],33 ± 6%
same,"recognition threshold (RT), amyl acetate",[1],7.1 ± 0.6^a BU
same,"recognition threshold (RT), nitrobenzene",[1],5.1 ± 0.9^a BU
same,"recognition threshold (RT), pyridine",[1],7.1 ± 0.7^a BU
same,"recognition threshold (RT), thiophene",[1],8.0 ± 1.0 BU
same,"detection threshold (DT), amyl acetate",[2],2.8 ± 0.5 BU
same,"detection threshold (DT), nitrobenzene",[2],3.8 ± 0.7 BU
same,"detection threshold (DT), pyridine",[2],4.0 ± 0.6 BU
same,"detection threshold (DT), thiophene",[2],3.2 ± 0.8 BU
same,"hedonic value (H), amyl acetate",[2],14 ± 13%
same,"hedonic value (H), nitrobenzene",[2],13 ± 12%
same,"hedonic value (H), pyridine",[2],−40 ± 13%
same,"hedonic value (H), thiophene",[2],−40 ± 18%
same,"magnitude estimation (ME), amyl acetate",[2],32 ± 10%
same,"magnitude estimation (ME), nitrobenzene",[2],33 ± 8%
same,"magnitude estimation (ME), pyridine",[2],45 ± 11%
same,"magnitude estimation (ME), thiophene",[2],47 ± 15%
same,"recognition threshold (RT), amyl acetate",[2],5.2 ± 1.6 BU
same,"recognition threshold (RT), nitrobenzene",[2],5.0 ± 0.6 BU
same,"recognition threshold (RT), pyridine",[2],5.2 ± 0.5 BU
same,"recognition threshold (RT), thiophene",[2],3.8 ± 0.6 BU
same,"detection threshold (DT), amyl acetate",[3],2 BU
same,"detection threshold (DT), nitrobenzene",[3],2.5 BU
same,"detection threshold (DT), pyridine",[3],5.0 BU
same,"detection threshold (DT), thiophene",[3],1 BU
same,"hedonic value (H), amyl acetate",[3],75%
same,"hedonic value (H), nitrobenzene",[3],−62%
same,"hedonic value (H), pyridine",[3],−40%
same,"hedonic value (H), thiophene",[3],−99%
same,"magnitude estimation (ME), amyl acetate",[3],75%
same,"magnitude estimation (ME), nitrobenzene",[3],79%
same,"magnitude estimation (ME), pyridine",[3],45%
same,"magnitude estimation (ME), thiophene",[3],99%
same,"recognition threshold (RT), amyl acetate",[3],3 BU
same,"recognition threshold (RT), nitrobenzene",[3],4.0 BU
same,"recognition threshold (RT), pyridine",[3],5.0 BU
same,"recognition threshold (RT), thiophene",[3],1 BU
same,"detection threshold (DT), amyl acetate",[4],2.5 ± 1.0 BU
same,"detection threshold (DT), nitrobenzene",[4],3.8 ± 0.9 BU
same,"detection threshold (DT), pyridine",[4],3.8 ± 0.9 BU
same,"detection threshold (DT), thiophene",[4],2.0 ± 1.0 BU
same,"hedonic value (H), amyl acetate",[4],28 ± 19%
same,"hedonic value (H), nitrobenzene",[4],12 ± 16%
same,"hedonic value (H), pyridine",[4],−26 ± 22%
same,"hedonic value (H), thiophene",[4],−35 ± 24%
same,"magnitude estimation (ME), amyl acetate",[4],31 ± 17%
same,"magnitude estimation (ME), nitrobenzene",[4],33 ± 13%
same,"magnitude estimation (ME), pyridine",[4],41 ± 15%
same,"magnitude estimation (ME), thiophene",[4],42 ± 20%
same,"recognition threshold (RT), amyl acetate",[4],4.8 ± 1.7 BU
same,"recognition threshold (RT), nitrobenzene",[4],4.5 ± 1.3 BU
same,"recognition threshold (RT), pyridine",[4],5.5 ± 0.9 BU
same,"recognition threshold (RT), thiophene",[4],3.8 ± 0.9 BU
same,"decrease in H, pyridine",oral 200 mg (Table IV),2%
same,"decrease in H, thiophene",oral 200 mg (Table IV),2%
same,"increase in H, amyl acetate (more pleasant)",oral 200 mg (Table IV),2%
same,"increase in H, nitrobenzene (more pleasant)",oral 200 mg (Table IV),2%
same,"increase in ME, amyl acetate",oral 200 mg (Table IV),5%
same,"increase in ME, nitrobenzene",oral 200 mg (Table IV),5%
same,"increase in ME, pyridine",oral 200 mg (Table IV),6%
same,"increase in ME, thiophene",oral 200 mg (Table IV),5%
same,"total mean increase in ME, all odors",oral 200 mg (Table IV),5.1%
same,"increase of H value, amyl acetate (more pleasant)","oral 200 mg, vs before treatment, not statistically significant",50%
same,"change in H, amyl acetate (decreased, became more pleasant)",oral 400 mg (Table V),1%
same,"change in H, nitrobenzene (decreased, became more pleasant)",oral 400 mg (Table V),4%
same,"change in H, pyridine (increases in H values)",oral 400 mg (Table V),9%
same,"change in H, thiophene (increases in H values)",oral 400 mg (Table V),7%
same,"increase in ME, amyl acetate",oral 400 mg (Table V),8%
same,"increase in ME, nitrobenzene",oral 400 mg (Table V),11%
same,"increase in ME, pyridine",oral 400 mg (Table V),12%
same,"increase in ME, thiophene",oral 400 mg (Table V),12%
same,"decrease of H value, thiophene (more unpleasant)","oral 400 mg, vs before treatment",40%
same,"increase of H value, nitrobenzene (more pleasant)","oral 400 mg, vs before treatment, not statistically significant",50%
same,"total mean increase in ME, all odors",oral 600 mg (Table VI),6.9%
same,"decrease of H value, pyridine (more unpleasant)",[5],55%
same,"decrease of H value, thiophene (more unpleasant)",[5],37%
same,"increase of H value, amyl acetate (more pleasant)",[5],about 50%
same,"increase of H value, nitrobenzene (more pleasant)",[5],about 50%
